# Measurements taken from publication PMC7093416, “Selective USP7 inhibition elicits cancer cell killing through a p53-dependent mechanism” (Scientific Reports, 2020).
# Test system: panel of 484 cancer cell lines
# Test: PRISM cancer cell line profiling, 5 days
# Assay type: cell-based
# Set-up: AUC: unit not given beside the values
# Procedure: Cancer cell line profiling was performed using the Broad’s PRISM platform. Cell treatment and data analysis were performed as described in Yu et al[42]. Raw Luminex signal was converted to AUC values for each cell line as described. The resulting AUC profile for each compound was modeled against DepMap using the limma package in R[71]. Because hotspot mutation analysis was performed against DepMap, TP53 annotations in Fig. 6c,d are directly from DepMap.
structure (smiles),measurement,setting,value
CN1CCN(CCC(=O)Nc2ccc3c(=O)n(CC4(O)CCN(C(=O)[C@@H](CCCNC(=O)c5ccc6c(Cl)c7c(nc6c5)CCCC7)Cc5ccccc5)CC4)cnc3c2)CC1 [XL177A],AUC,HCC1438_LUNG,0.7615
same,AUC,HCC1588_LUNG,1.23
same,AUC,HCC1806_BREAST,0.9812
same,AUC,HCC1937_BREAST,1.015
same,AUC,HCC4006_LUNG,0.9625
same,AUC,HCT15_LARGE_INTESTINE,1.19
same,AUC,HCT116_LARGE_INTESTINE,0.9421
same,AUC,HDQP1_BREAST,0.9973
same,AUC,HEC1A_ENDOMETRIUM,1.131
same,AUC,HEC1B_ENDOMETRIUM,0.9267
same,AUC,HEC6_ENDOMETRIUM,0.9564
same,AUC,HEC59_ENDOMETRIUM,1.149
same,AUC,HEC108_ENDOMETRIUM,0.8058
same,AUC,HEC151_ENDOMETRIUM,0.7769
same,AUC,HEC251_ENDOMETRIUM,0.792
same,AUC,HEC265_ENDOMETRIUM,0.8327
same,AUC,HEP3B217_LIVER,1.13
same,AUC,HEYA8_OVARY,0.9929
same,AUC,HGC27_STOMACH,1.014
same,AUC,HLF_LIVER,1.111
same,AUC,HMC18_BREAST,0.9153
same,AUC,HOS_BONE,1.0422
same,AUC,HPAC_PANCREAS,1.477
same,AUC,HS294T_SKIN,0.8762
same,AUC,HS618T_LUNG,0.9543
same,AUC,HS729_SOFT_TISSUE,0.9806
same,AUC,HS766T_PANCREAS,0.877
same,AUC,HS852T_SKIN,1.359
same,AUC,HS939T_SKIN,1.069
same,AUC,HS944T_SKIN,1.047
same,AUC,HSC2_UPPER_AERODIGESTIVE_TRACT,0.968
same,AUC,HSC3_UPPER_AERODIGESTIVE_TRACT,0.8381
same,AUC,HT29_LARGE_INTESTINE,1.3
same,AUC,HT55_LARGE_INTESTINE,1.168
same,AUC,HT144_SKIN,1.076
same,AUC,HT1080_SOFT_TISSUE,1.011
same,AUC,HT1376_URINARY_TRACT,1.127
same,AUC,HUCCT1_BILIARY_TRACT,0.9724
same,AUC,HUH6_LIVER,0.8768
same,AUC,HUH7_LIVER,1.027
same,AUC,HUH28_BILIARY_TRACT,1.165
same,AUC,HUPT3_PANCREAS,1.003
same,AUC,IALM_LUNG,0.9313
same,AUC,IGR1_SKIN,0.998
same,AUC,IGR37_SKIN,0.9905
same,AUC,IGROV1_OVARY,0.7266
same,AUC,IM95_STOMACH,0.6846
same,AUC,IPC298_SKIN,0.897
same,AUC,ISHIKAWAHERAKLIO02ER_ENDOMETRIUM,1.0984
same,AUC,ISTMES1_PLEURA,0.9912
same,AUC,ISTMES2_PLEURA,1.073
same,AUC,J82_URINARY_TRACT,1.012
same,AUC,JHH1_LIVER,0.7875
same,AUC,JHH4_LIVER,1.303
same,AUC,JHH5_LIVER,1.313
same,AUC,JHH6_LIVER,1.146
same,AUC,JHH7_LIVER,1.089
same,AUC,JHOC5_OVARY,0.9299
same,AUC,JHOM1_OVARY,1.1
same,AUC,JHOS2_OVARY,1.084
same,AUC,JHUEM2_ENDOMETRIUM,0.6526
same,AUC,JIMT1_BREAST,0.9668
same,AUC,JMSU1_URINARY_TRACT,1.405
same,AUC,K029AX_SKIN,0.9501
same,AUC,KALS1_CENTRAL_NERVOUS_SYSTEM,0.9126
same,AUC,KELLY_AUTONOMIC_GANGLIA,1.086
same,AUC,KMBC2_URINARY_TRACT,0.7761
same,AUC,KMRC1_KIDNEY,1.1591
same,AUC,KMRC3_KIDNEY,1.033
same,AUC,KMRC20_KIDNEY,1.2
same,AUC,KNS42_CENTRAL_NERVOUS_SYSTEM,1.183
same,AUC,KNS60_CENTRAL_NERVOUS_SYSTEM,1.16
same,AUC,KNS62_LUNG,0.8251
same,AUC,KNS81_CENTRAL_NERVOUS_SYSTEM,0.9475
same,AUC,KP2_PANCREAS,1.066
same,AUC,KP3_PANCREAS,1.01
same,AUC,KP4_PANCREAS,0.8954
same,AUC,KPL1_BREAST,0.9211
same,AUC,KU1919_URINARY_TRACT,0.8697
same,AUC,KYSE30_OESOPHAGUS,0.8748
same,AUC,KYSE70_OESOPHAGUS,0.8646
same,AUC,KYSE140_OESOPHAGUS,1.147
same,AUC,KYSE150_OESOPHAGUS,0.9935
same,AUC,KYSE180_OESOPHAGUS,1.01
same,AUC,KYSE270_OESOPHAGUS,0.9741
same,AUC,KYSE410_OESOPHAGUS,1.031
same,AUC,KYSE510_OESOPHAGUS,0.9351
same,AUC,KYSE520_OESOPHAGUS,0.8676
same,AUC,L33_PANCREAS,1.236
same,AUC,LC1SQSF_LUNG,1.124
same,AUC,LCLC103H_LUNG,1.104
same,AUC,LI7_LIVER,1.1644
same,AUC,LK2_LUNG,1.455
same,AUC,LMSU_STOMACH,0.9257
same,AUC,LN18_CENTRAL_NERVOUS_SYSTEM,0.8921
same,AUC,LN229_CENTRAL_NERVOUS_SYSTEM,1.185
same,AUC,LNCAPCLONEFGC_PROSTATE,0.7244
same,AUC,LOUNH91_LUNG,1.175
same,AUC,LOVO_LARGE_INTESTINE,1.153
same,AUC,LOXIMVI_SKIN,0.9286
same,AUC,LS180_LARGE_INTESTINE,0.8962
same,AUC,LS411N_LARGE_INTESTINE,1.328
same,AUC,LS513_LARGE_INTESTINE,1.158
same,AUC,LS1034_LARGE_INTESTINE,1.385
same,AUC,LU99_LUNG,0.9975
same,AUC,LUDLU1_LUNG,1.119
same,AUC,LXF289_LUNG,0.9272
same,AUC,MALME3M_SKIN,0.9568
same,AUC,MCAS_OVARY,0.987
same,AUC,MCF7_BREAST,0.9375
same,AUC,MDAMB175VII_BREAST,1.118
same,AUC,MDAMB231_BREAST,0.9911
same,AUC,MDAMB435S_SKIN,0.9274
same,AUC,MDAMB436_BREAST,0.9312
same,AUC,MDAMB468_BREAST,0.902
same,AUC,MELHO_SKIN,0.9951
same,AUC,MELJUSO_SKIN,0.9827
same,AUC,MESSA_SOFT_TISSUE,0.5444
same,AUC,MEWO_SKIN,0.9674
same,AUC,MFE280_ENDOMETRIUM,1.202
same,AUC,MFE296_ENDOMETRIUM,1.106
same,AUC,MFE319_ENDOMETRIUM,1.097
